From patent US20210330611A1, “THERAPY FOR NEUROLOGICAL DISEASES/DISORDERS” (priority 2020, published 2021)
Structures can show the parent of a compound that is named as a salt. Where two headings read alike, the source gives them in different places.

Assays:
primary rat microglia [1] = test system: primary rat microglia
primary rat microglia [2] = assay: Cell toxicity (dead cells, size <150 μm2) in coated fibrin (cFib) assay; settings: primary microglia HTS;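 also: share of dead cells sized under 150 µm2 at 10 µM in fibrin-stimulated microglia HTS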
[3] = test system: fibrin- and LPS-induced microglia activation; assay: cells; format: cell-based, rat
[4] = test system: fibrin-induced microglia activation; assay: Image-based assay of fibrin-induced microglia activation (HTS and dose response); format: cell-based, rat; settings: primary microglia HTS, fibrin stimulation; for inhibition at 10 µM: Rattus norvegicus, Microglia, read-out: Fibrin % inhibition
[5] = test system: LPS-induced microglia activation; assay: Image-based assay of LPS-induced microglia activation (HTS and dose response); format: cell-based, rat; settings: for inhibition at 10 µM: Rattus norvegicus, Microglia, read-out: LPS % inhibition
[6] = fibrin stimulation, cell size <150 μm2 as marker of toxicity
[7] = classification by fibrin and LPS inhibition in HTS
[8] = cell size >800 μm2 as marker of activation
[9] = fibrin assay, dead cells (size <150 μm2)
[10] = quadrant by fibrin and LPS inhibition, HTS at 10 μM
[11] = primary microglia HTS, LPS stimulation, compounds at 10 μM
[12] = fibrin assay, dead cells (size <150 μm2), compounds at 10 μM
[13] = classification by fibrin and LPS inhibition, HTS at 10 μM

Structure (SMILES) | LPS % cell toxicity (primary rat microglia [1]; rat) [%] | Fibrin % cell toxicity (primary rat microglia [2]; [6]) [%] | Quadrant (FIG. 5b) [3, 7] | inhibition at 10 µM [4, 8] [%] | inhibition at 10 µM ([5]; 48 h) [%] | further results
CCC[C@H](N[C@@H](C)C(=O)N1[C@H](C(=O)O)C[C@@H]2CCCC[C@@H]21)C(=O)OCC [Perindopril] | 0 | 0 | Q4 | -27 | 18 | –
COc1ccc(C2C(=O)c3ccccc3C2=O)cc1 [Anisindione] | 0 | – | – | – | – | Fibrin % cell toxicity (primary rat microglia [2]; [9]): 0%; Quadrant (FIG. 5b) [3, 10]: Q4; inhibition at 10 µM ([4]; compounds at 10 μM): -15%; inhibition at 10 µM [5, 11]: 13%
CN1C[C@H](C(=O)N[C@]2(C)O[C@@]3(O)[C@@H]4CCCN4C(=O)[C@H](Cc4ccccc4)N3C2=O)C=C2c3cccc4[nH]cc(c34)C[C@H]21 [Ergotamine Tartrate] | 1 | – | – | – | – | Fibrin % cell toxicity (primary rat microglia [2]; [12]): 0%; Quadrant (FIG. 5b) [3, 13]: Q4; Fibrin % inhibition ([4]; compounds at 10 μM, 10 µM): 31%; LPS % inhibition ([5]; primary microglia HTS, LPS stimulation, compounds at 10 μM, 10 µM): 22%
O=C(O)CCc1nc2ccccc2[nH]1 [Procodazole] | 0 | 1 | Q4 | -15 | 15 | –
CN(C)CC[C@@H](c1ccc(Br)cc1)c1ccccn1 | – | – | – | – | – | LPS % cell toxicity (primary rat microglia [1]): 0%; Fibrin % cell toxicity (primary rat microglia [2]; [12]): 0%; Quadrant (FIG. 5b) [3, 13]: Q4; Fibrin % inhibition ([4]; compounds at 10 μM): 0%; LPS % inhibition [5, 11]: 10%
CN(C)CCc1c[nH]c2ccc(Cn3cncn3)cc12 [Rizatriptan] | 0 | 1 | Q4 | -9 | 10 | –
CC(=O)N(O)CCCCCNC(=O)CCC(=O)N(O)CCCCCNC(=O)CCC(=O)N(O)CCCCCN [Deferoxamine] | 0 | – | – | – | – | Fibrin % cell toxicity (primary rat microglia [2]; [12]): 1%; Quadrant (FIG. 5b) [3, 13]: Q4; inhibition at 10 µM ([4]; compounds at 10 μM): 2%; inhibition at 10 µM [5, 11]: 32%
O=C(O)CCCO [Sodium Oxybate] | 0 | 1 | Q4 | -5 | 34 | –
O=C1CC[C@@H](C(=O)O)N1 [Pidolic Acid] | 0 | 1 | Q4 | -57 | 15 | –
O=C(O)CCNC(=O)c1ccc(/N=N/c2ccc(O)c(C(=O)O)c2)cc1 [Balsalazide] | 0 | – | – | – | – | Fibrin % cell toxicity (primary rat microglia [2]; [9]): 0%; Quadrant (FIG. 5b) [3, 10]: Q4; inhibition at 10 µM ([4]; compounds at 10 μM): -2%; inhibition at 10 µM [5, 11]: 11%
C#CCN(C)Cc1ccccc1 [Pargyline] | 0 | 1 | Q4 | -25 | 11 | –
Nc1ccc(C(=O)NCC(=O)O)cc1 [Aminohippuric Acid] | 1 | – | – | – | – | Fibrin % cell toxicity (primary rat microglia [2]; [9]): 1%; Quadrant (FIG. 5b) [3, 10]: Q4; inhibition at 10 µM ([4]; compounds at 10 μM): -7%; inhibition at 10 µM [5, 11]: 16%
COCCCOc1ccnc(C[S+]([O-])c2nc3ccccc3[nH]2)c1C (stereo not drawn) [Rabeprazole] | 0 | 0 | Q4 | -46 | 3 | –
CNC(=O)Oc1ccccc1OC(C)C [Propoxur] | 0 | 1 | Q4 | -51 | – | inhibition at 10 µM ([5]; 48 h, primary microglia HTS, LPS stimulation, cell size >800 μm2 as marker of activation): 8%
O=S(=O)([O-])CCSSCCS(=O)(=O)[O-].[Na+].[Na+] [Dimesna] | – | – | – | – | – | LPS % cell toxicity (primary rat microglia [1]): 0%; Fibrin % cell toxicity (primary rat microglia [2]; [12]): 1%; Quadrant (FIG. 5b) [3, 13]: Q4; Fibrin % inhibition ([4]; compounds at 10 μM): −19%; LPS % inhibition [5, 11]: 13%
CCC1(c2ccc(N)cc2)CCC(=O)NC1=O (racemic) | – | – | – | – | – | LPS % cell toxicity (primary rat microglia [1]): 0%; Fibrin % cell toxicity (primary rat microglia [2]; [9]): 0%; Quadrant (FIG. 5b) [3, 10]: Q4; Fibrin % inhibition ([4]; compounds at 10 μM): 3%; LPS % inhibition [5, 11]: 6%
CCc1nc(N)nc(N)c1-c1ccc(Cl)cc1 [Pyrimethamine] | 1 | 1 | Q4 | -11 | 12 | –
Nc1ccc([As](=O)(O)O)cc1 [Arsanilic Acid] | 0 | – | – | – | – | Fibrin % cell toxicity (primary rat microglia [2]; [9]): 0%; Quadrant (FIG. 5b) [3, 10]: Q4; Fibrin % inhibition ([4]; compounds at 10 μM): −42%; LPS % inhibition [5, 11]: 12%
